Laboratory results taken from paper PMC7282810, “Existence and functions of a kisspeptin neuropeptide signaling system in a non-chordate deuterostome species” (eLife, 2020).
Entries after “also recorded” stand apart in the source; their conditions may differ. Bridges are numbered along the chain shown (N, C = ends). Where no end group is shown, it is not given here.

What was measured:
AjKissR2 [1] = target: T1, AjKissR2 (Apostichopus japonicus, UniProt A0A5B7LIE4); assay: cell-based; assay type: cell-based; conditions: for Potency in triggering intracellular Ca2+ mobilization via AjKissR2 (in words): HEK293, Fura-2/AM, vertebrate kisspeptins and FITC-AjKiss1a at 1.0 μM
T1 sequence (A0A5B7LIE4 1-327): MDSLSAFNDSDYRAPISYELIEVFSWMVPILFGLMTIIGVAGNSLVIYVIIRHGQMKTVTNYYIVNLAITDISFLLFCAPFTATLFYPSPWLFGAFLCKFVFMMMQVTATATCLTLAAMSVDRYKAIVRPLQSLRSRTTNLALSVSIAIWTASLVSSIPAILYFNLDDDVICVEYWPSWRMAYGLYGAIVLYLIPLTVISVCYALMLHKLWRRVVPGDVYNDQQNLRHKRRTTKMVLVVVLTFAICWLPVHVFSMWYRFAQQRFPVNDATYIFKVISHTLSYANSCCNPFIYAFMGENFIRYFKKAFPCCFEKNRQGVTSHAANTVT
Procedure: (§1) The fluorescent Ca^2+ indicator Fura-2/AM was used to detect intracellular calcium flux ([Li et al., 2010]). Briefly, the HEK293 cells expressing the AjKissR1, AjKissR2 or vertebrate kisspeptin receptor were washed twice with PBS and suspended at 5 × 10^6 cells/mL in Hanks’ balanced salt solution. The cells were then loaded with 3.0 μM Fura-2/AM for 30 min and washed twice in Hanks’ solution. They were then stimulated with the indicated concentrations of different predicted A. japonicus kisspeptins or vertebrate kisspeptins. Finally, intracellular calcium flux was measured for 60 s, by determining the ratio of excitation wavelengths at 340 and 380 nm using a fluorescence spectrometer (Infinite 200 PRO, Tecan, Männedorf, Switzerland). All of the experiments for measuring Ca^2+ mobilization were repeated independently at least three times.

AjKissR1 [2] = target: T2, AjKissR1 (Apostichopus japonicus, UniProt A0A5B7LK60); assay: cell-based; assay type: cell-based; conditions: for Potency in triggering intracellular Ca2+ mobilization via AjKissR1 (in words): HEK293, Fura-2/AM, vertebrate kisspeptins and FITC-AjKiss1a at 1.0 μM
T2 sequence (A0A5B7LK60 1-378): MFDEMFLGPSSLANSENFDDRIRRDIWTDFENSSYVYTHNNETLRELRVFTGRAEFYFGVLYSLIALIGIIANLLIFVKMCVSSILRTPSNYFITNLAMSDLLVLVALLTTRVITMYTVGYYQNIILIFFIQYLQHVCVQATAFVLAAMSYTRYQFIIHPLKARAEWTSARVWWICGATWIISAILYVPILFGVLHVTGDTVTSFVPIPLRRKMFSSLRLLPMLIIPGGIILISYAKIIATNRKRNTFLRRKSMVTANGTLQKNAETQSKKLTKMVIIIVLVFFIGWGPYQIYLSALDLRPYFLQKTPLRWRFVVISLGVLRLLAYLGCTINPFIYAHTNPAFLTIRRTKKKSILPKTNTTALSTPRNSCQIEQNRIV
Procedure: as §1

AjKissR1 [3] = target: T2, AjKissR1; assay: Ligand competition binding assay (FITC-AjKiss1a, FACS), HEK293/AjKissR1; conditions: 1.0 μM FITC-AjKiss1a, read-out: IC50 (competitive displacement of FITC-AjKiss1a)
Procedure: (§2) A fluorescence-activated cell sorter (FACS) was used to detect the binding ability of kisspeptins with AjKissR1 or AjKissR2. HEK293 cells expressing FLAG–AjKissR1 or FLAG–AjKissR2 were washed with PBS that contained 0.2% bovine serum albumin (FACS buffer). We designed and synthesized an N-terminal FITC-labeled AjKiss1a peptide (see 'Key resources table'). Different kisspeptins were diluted in the FACS buffer to different concentrations, then added to cells that were incubated on ice for 60–90 min. Cells were washed thrice with the FACS buffer and re-suspended in the FACS buffer with 1% paraformaldehyde for 15 min. The binding activity of the indicated kisspeptin peptides with AjKissR1 or AjKissR2 was determined by measuring the fluorescence of FITC and was presented as a percentage of total binding.

AjKissR2 [4] = target: T1, AjKissR2; assay: Ligand competition binding assay (FITC-AjKiss1a, FACS), HEK293/AjKissR2; conditions: 1.0 μM FITC-AjKiss1a, read-out: IC50 (competitive displacement of FITC-AjKiss1a)
Procedure: as §2

AjKissR2 [5] = target: T1, AjKissR2; assay: ERK1/2 phosphorylation (western blot) in HEK293 cells expressing FLAG-AjKissR2; assay type: cell-based; conditions: different concentrations for 5 min, immunoblot quantification, Figure 6A
Procedure: (§3) To examine the phosphorylation of ERK, cells that expressed AjKissr1/2 or other GPR54s were incubated for the indicated times with different concentrations of kisspeptins. Subsequently, cells were lysed with lysis buffer (Beyotime) that contained protease inhibitor (Roche) at 4°C for 30 min on a rocker and then scraped. Proteins were then electrophoresed on a 10% SDS polyacrylamide gel and transferred to polyvinylidene difluoride (PVDF) membranes. Membranes were blocked with 5% skimmed milk, then probed with rabbit anti-phospho-ERK1/2(Thr^202/Tyr^204) antibody (1:2000; Cell Signaling Technology), followed by detection using HRP-conjugated goat anti-rabbit IgG (Beyotime). Blots were stripped and reprobed using anti-ERK1/2 antibody (1:2000; Cell Signaling Technology) as a control for protein loading.
(§4) Immunoreactive bands were detected with an enhanced chemiluminescent substrate (Beyotime), and the membrane was scanned using a Tanon 5200 Chemiluminescent Imaging System (Tanon Science and Technology, Shanghai, China).

AjKissR1 [6] = target: T2, AjKissR1; assay: ERK1/2 phosphorylation (western blot) in HEK293 cells expressing FLAG-AjKissR1; assay type: cell-based; conditions: different concentrations for 5 min, immunoblot quantification, Figure 6A
Procedure: as §3, §4

FLAG–AjKissR1 = target: T3, FLAG–AjKissR1 (Apostichopus japonicus); assay: competition with 1.0 uM FITC-AjKiss1a
T3 chain: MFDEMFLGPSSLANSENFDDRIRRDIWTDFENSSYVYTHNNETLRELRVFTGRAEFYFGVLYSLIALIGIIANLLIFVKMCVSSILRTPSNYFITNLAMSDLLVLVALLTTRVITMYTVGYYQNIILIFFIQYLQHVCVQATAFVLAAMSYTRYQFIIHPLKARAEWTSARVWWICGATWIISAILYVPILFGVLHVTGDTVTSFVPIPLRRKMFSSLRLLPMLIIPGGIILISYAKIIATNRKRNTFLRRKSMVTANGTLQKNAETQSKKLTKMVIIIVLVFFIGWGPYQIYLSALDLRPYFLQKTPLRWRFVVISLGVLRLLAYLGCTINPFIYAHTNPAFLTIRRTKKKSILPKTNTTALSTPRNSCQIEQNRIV

[7] = target: FLAG–AjKissR2 (Apostichopus japonicus); assay: flow cytometry on cells; ligand competition: 1.0 uM FITC-AjKiss1a with unlabeled kisspeptins at the indicated concentrations on HEK293 cells expressing FLAG-AjKissR1 or FLAG-AjKissR2; on ice 60-90 min; PBS with 0.2% BSA; FITC fluorescence as percentage of total binding

Molecule	Potency in triggering intracellular Ca2+ mobilization via AjKissR2 (in words) (AjKissR2 [1])	Potency in triggering intracellular Ca2+ mobilization via AjKissR1 (in words) (AjKissR1 [2])	also measured
GRQPNRNAHYRTLPF-NH2 [AjKiss1a-15, truncated peptide of AjKiss1a]	failed to activate	failed to activate	
HsNPS: human neuropeptide S, as a negative control (SFRNGVGTGMKKTSFQRAKS) [reference compound]	no potency	no potency	
SAVKNKNKSRARPPLLPF-NH2 [AjKiss1b]			IC50 (AjKissR1 [3]): 353 nM; IC50 (AjKissR2 [4]): 1250 nM; EC50 (AjKissR2 [1]): 33.2 nM; EC50 (AjKissR1 [2]): 8.06 nM
SRARPPLLPF-NH2 [AjKiss1b-10]			EC50 (AjKissR2 [5]): 98.7 nM; EC50 (AjKissR2 [1]): 27.3 nM; EC50 (AjKissR1 [2]): 1.71 nM; EC50 (AjKissR1 [6]): 31.6 nM
YNLNSFGLRY-NH2 [DrKiss1-10, synthetic zebrafish kisspeptin decapeptide, reference compound]	higher potency than that of HsKiss1-10; also recorded: potent	much lower potency; also recorded: potent	
YNVNSFGLRF-NH2 [XtKiss1b-10, synthetic frog kisspeptin decapeptide, reference compound]	higher potency than that of HsKiss1-10; also recorded: potent	higher potency; also recorded: potent	
YNWNSFGLRF-NH2 [HsKiss1-10, synthetic human kisspeptin decapeptide, reference compound]	potent	higher potency; also recorded: potent	
AGSLDCLEASCEDVERRGRQPNRNAHYRTLPF-NH2 (disulfide 6-11; N-terminus assumed; SMILES CC(C)C[C@H](NC(=O)[C@H](CO)NC(=O)CNC(=O)[C@H](C)N)C(=O)N[C@@H](CC(=O)O)C(=O)N[C@H]1CSSC[C@@H](C(=O)N[C@@H](CCC(=O)O)C(=O)N[C@@H](CC(=O)O)C(=O)N[C@H](C(=O)N[C@@H](CCC(=O)O)C(=O)N[C@@H](CCCNC(=N)N)C(=O)N[C@@H](CCCNC(=N)N)C(=O)NCC(=O)N[C@@H](CCCNC(=N)N)C(=O)N[C@@H](CCC(N)=O)C(=O)N2CCC[C@H]2C(=O)N[C@@H](CC(N)=O)C(=O)N[C@@H](CCCNC(=N)N)C(=O)N[C@@H](CC(N)=O)C(=O)N[C@@H](C)C(=O)N[C@@H](Cc2c[nH]cn2)C(=O)N[C@@H](Cc2ccc(O)cc2)C(=O)N[C@@H](CCCNC(=N)N)C(=O)N[C@H](C(=O)N[C@@H](CC(C)C)C(=O)N2CCC[C@H]2C(=O)N[C@@H](Cc2ccccc2)C(N)=O)[C@@H](C)O)C(C)C)NC(=O)[C@H](CO)NC(=O)[C@H](C)NC(=O)[C@H](CCC(=O)O)NC(=O)[C@H](CC(C)C)NC1=O) [AjKiss1a (C-terminal amidated)]			IC50 (FLAG–AjKissR1): 568 nM; IC50 [7]: 95.2 nM
